Measurements as given in patent publication US20100004333A1, “COMPOSITIONS AND METHODS FOR TREATING CARDIOVASCULAR DISORDERS” (priority 2004, published 2010).
Marks after values point to notes of the source that are not given here.

What was measured:
[1] = mouse, in vivo
Experimental: The quantity of probucol, BP, and DPQ in aortic homogenates was determined by gradient reverse-phase high-pressure liquid chromatography (HPLC) as described in FASEB Journal 1999, 13:667-675.

apoE−/− mice [2] = experiment: Histology of lesions: total cells, macrophages (F4/80), extra-cellular matrix (collagen) in apoE−/− mice; format: in vivo; details: for % ECM of total lesion area / % Mφ of total lesion area / ECM area / Lesion area (extra-cellular matrix series) / Lesion area (macrophage series) / Mφ area / Lesion area (total cell density series) / Total cells/μm^2 / Total number of cells: mean ± SD
Excerpt: The materials and methods used were essentially as described under Example 1. In addition, for total cell numbers, nuclei were counted in hematoxylin and eosin-stained sections and expressed per lesion area. At the sinus, sections were taken ˜200 μm from the first appearance of the leaflets. Sections at the thoracic and abdominal aorta were taken at the branch point of the 3rd pair of intra-costal arteries and the celiac artery, respectively. For macrophages, 4 μm paraffin sections were deparaffinized, rehydrated and endogenous peroxidase quenched with 3% hydrogen peroxide (15 min). Enzymatic antigen retrieval was performed in trypsin (1 mg/mL) solutions pH 7.7 containing 4 mM CaCl2 and 200 mM Tris for 30 min at 37° C., followed by a 20 min incubation in 5% normal rabbit blocking serum. Sections were then incubated overnight in a humidified chamber and at 4° C. with monoclonal rat-anti-mouse F4/80 antibody (Caltag Laboratories; dilution 1:20), followed by biotinylated rabbit anti-rat IgG (Vector Laboratories; dilution 1:200, 30 min), Vectorstain Elite ABC reagent (Vectorstain Elite ABC Kit, Vector Laboratories; 30 min), and 3,3′-diaminobenzidine substrate-chromogen (Dako Corporation) with counterstaining using Harris hematoxylin. Images were captured using a Zeiss Axiophot Photomicroscope, and the area staining positive for F4/80 antigen expressed as a percentage of the total lesion area. Collagen was determined as described in Histochemical Journal 1979, 11:447-455. Briefly, 4 μm sections were deparaffinized, rehydrated and stained with 0.1% Sirius red (Fast red F3B) in saturated aqueous picric acid (pH 2.0) for 1 h at room temperature and then transferred to a solution of 0.01 N HCl for 2 min followed by counterstaining in Harris hematoxylin for 1 min. Total lesion area were measured from bright field images captured with an Olympus BX60 photomicroscope attached with a SPOT digital camera, whereas the birefringent area staining positive for Sirius red was detected using polarization microscopy and expressed as a percentage of the total lesion area at that site.

apoE−/− mice [3] = experiment: Aortic biochemistry (non-oxidized lipids, α-tocopherol, oxidized lipids) in aortic segments of apoE−/− mice; format: in vivo; details: 1% probucol, 24 weeks, mean ± SD; for Lipids: C: 4 pools; for Oxidized lipids: F2-isoprostanes / Oxidized lipids: F2-isoprostanes per arachidonate: ten sections
Excerpt: Male C57BL/6J mice, homozygous for the disrupted apoE gene (apoE−/−) and originally purchased from Jackson Laboratories (Bar Harbor, Me.), were used at 8-10 weeks of age and then fed for 24 weeks ad libitum a high fat diet containing 21.2 (w/w) fat and 0.15% (w/w) cholesterol (specifications of the Harlan Teklad diet TD88137), without (controls, 103 mice) or with probucol (1% w/w, 87 mice), as described in Arteriosclerosis Thrombosis and Vascular Biology 2000, 20:e26-e33. The local animal ethics committee approved the study.
Procedures were carried out as described in Arteriosclerosis Thrombosis and Vascular Biology 2000, 20:e26-e33. For biochemistry, hearts and aortas past the femoral bifurcation were excised carefully (n=86 and 70 for control and probucol animals, respectively), cleaned, placed immediately in ice-cold buffer containing protease inhibitors and antibiotics, and then stored at −80° C. For histology, separate mice (n=17 each, for controls and probucol) were perfusion fixed, the hearts and aortas dissected and processed for blinded morphometry at the sinus, arch and descending thoracic and abdominal aorta, precisely as described in Arteriosclerosis Thrombosis and Vascular Biology 2000, 20:e26-e33. Mean areas from thoracic and abdominal aortas were similar and therefore combined and presented as a single value. For histology, sections at the sinus were taken ˜200 μm from the first appearance of the leaflets. Sections at the thoracic and abdominal aorta were taken at the branch point of the 3rd pair of intra-costal arteries and the celiac artery, respectively.
For F2-isoprostanes, the thawed aortic segment (≈20 mg wet weight) was blotted dry, weighed and F2-isoprostanes analyzed by electron capture negative ionization GC/MS after solid-phase extraction and HPLC purification as described in Analytical Biochemistry 1999, 268:117-125, using [D4]-8-iso-prostaglandin F2α (Cayman Chemical) as internal standard. For arachidonate, phospholipids were separated by thin-layer chromatography, the fatty acid methyl esters then prepared and analyzed by GLC, as described in American Journal of Clinical Nutrition 2000, 71:1085-1094.
For other analytes, pooled aortic segments were homogenized and extracted as described in Journal of Lipid Research 1999, 40:1104-1112, and the organic phase analysed by HPLC with electrochemical (for α-tocopherol), UV (C and CE) and post-column chemiluminescence detection (CE-OOH) as described in Methods in Enzymology 1999, 299:362-375. CE-OOH were measured as a marker of primary lipoprotein lipid peroxidation as they are the primary and major lipid oxidation products formed in lipoproteins from apoE−/− mice undergoing oxidation in the presence of α-tocopherol. For total cholesterol and 7KC, separate 10 μL and 100 μL aliquots, respectively, of the re-dissolved organic extracts were saponified, and subjected to HPLC as described in Journal of Lipid Research 1997, 38:1730-1745. For 7KC, a silica column (0.46×15 cm, 120 Å, 5 μm, Supelco) with guard column (3 μm particle size) was eluted with hexane/isopropylalcohol/acetonitrile (94.8:4.6:0.6 v/v/v) at 1.0 mL/min and monitored at 234 nm. For all chromatographic analyses, compounds were quantified by area comparison using authentic standards.

[4] = descending aorta, versus control

CC(C)(Sc1cc(C(C)(C)C)c(O)c(C(C)(C)C)c1)Sc1cc(C(C)(C)C)c(O)c(C(C)(C)C)c1 [probucol]
Metabolites (BP and DPQ) relative to parent drug [1]: nearly one third of the drug
% ECM of total lesion area (apoE−/− mice [2]; Sinus, n = 6): 66±13%
% Mφ of total lesion area (apoE−/− mice [2]; Sinus, n = 6): 14 ± 5^a %
ECM area (apoE−/− mice [2]; Sinus, n = 6): 577 ± 126^a μm^2 × 10^−3
Lesion area (extra-cellular matrix series) (apoE−/− mice [2]; Sinus, n = 6): 878 ± 153^a μm^2 × 10^−3
Lesion area (macrophage series) (apoE−/− mice [2]; Sinus, n = 6): 886 ± 89^a μm^2 × 10^−3
Mφ area (apoE−/− mice [2]; Sinus, n = 6): 127 ± 53 ^ μm^2 × 10^−3
% ECM of total lesion area (apoE−/− mice [2]; Sinus, n = 6, listed as Probucol): 66 ± 13^a %
Lesion area (total cell density series) (apoE−/− mice [2]; Sinus, n = 8): 889 ± 254^a μm^2 × 10^−3
Total cells/μm^2 (apoE−/− mice [2]; Sinus, n = 8): 1.7 ± 0.6^a cells/μm^2
Total number of cells (apoE−/− mice [2]; Sinus, n = 8): 1423 ± 441 ^
% ECM of total lesion area (apoE−/− mice [2]; T/A, n = 6): 0.0 ± 0.0^a %
% Mφ of total lesion area (apoE−/− mice [2]; T/A, n = 6): 99.4 ± 1.4 ^ %
ECM area (apoE−/− mice [2]; T/A, n = 6): 0.0 ± 0.0^a μm^2 × 10^−3
Lesion area (extra-cellular matrix series) (apoE−/− mice [2]; T/A, n = 6): 13 ± 3^a μm^2 × 10^−3
Lesion area (macrophage series) (apoE−/− mice [2]; T/A, n = 6): 22 ± 15^a μm^2 × 10^−3
Lesion area (total cell density series) (apoE−/− mice [2]; T/A, n = 6): 22 ± 15^a μm^2 × 10^−3
Mφ area (apoE−/− mice [2]; T/A, n = 6): 21 ± 12^a μm^2 × 10^−3
Total cells/μm^2 (apoE−/− mice [2]; T/A, n = 6): 0.36 ± 0.39^ cells/μm^2
Total number of cells (apoE−/− mice [2]; T/A, n = 6): 10 ± 13^a
Decrease in macrophages (apoE−/− mice [2]; [4]): ~91%
Decrease in total cell numbers (apoE−/− mice [2]; [4]): ~91%
Decrease in percentage of lesion area covered by macrophages (apoE−/− mice [2]; sinus, versus control): ~50%
Antioxidants: α-Tocopherol (apoE−/− mice [3]; Arch): 1.6 ± 0.3^a nmol/mgp
Lipids: C18:2 (apoE−/− mice [3]; Arch): 33 ± 9^a nmol/mgp
Lipids: C20:4 (apoE−/− mice [3]; Arch): 17 ± 3^a nmol/mgp
Oxidized lipids: 7KC (apoE−/− mice [3]; Arch): 0.20 ± 0.11 pmol/mgp
Oxidized lipids: 7KC/total cholesterol (apoE−/− mice [3]; Arch): 0.25 ± 0.20 mmol/mol
Oxidized lipids: CE-OOH (apoE−/− mice [3]; Arch): 143.8 ± 118.7 pmol/mgp
Oxidized lipids: CE-OOH/CE (apoE−/− mice [3]; Arch): 2.70 ± 2.04 mmol/mol
Lipids: C (apoE−/− mice [3]; Arch): 447 ± 71^a nmol/mgp
Oxidized lipids: F2-isoprostanes (apoE−/− mice [3]; Arch): 0.35 ± 0.11 pmol/mgp
Oxidized lipids: F2-isoprostanes per arachidonate (apoE−/− mice [3]; Arch): 10.4 ± 3.6 μmol/mol arachidonate
Antioxidants: α-Tocopherol (apoE−/− mice [3]; Sinus): 3.0 ± 1.2 nmol/mgp
Lipids: C18:2 (apoE−/− mice [3]; Sinus): 61 ± 11 nmol/mgp
Lipids: C20:4 (apoE−/− mice [3]; Sinus): 33 ± 6 nmol/mgp
Oxidized lipids: 7KC (apoE−/− mice [3]; Sinus): 0.21 ± 0.11 pmol/mgp
Oxidized lipids: 7KC/total cholesterol (apoE−/− mice [3]; Sinus): 0.16 ± 0.06 mmol/mol
Oxidized lipids: CE-OOH (apoE−/− mice [3]; Sinus): 88.1 ± 26.6 pmol/mgp
Oxidized lipids: CE-OOH/CE (apoE−/− mice [3]; Sinus): 0.93 ± 0.12 mmol/mol
Lipids: C (apoE−/− mice [3]; Sinus): 928 ± 144 nmol/mgp
Oxidized lipids: F2-isoprostanes (apoE−/− mice [3]; Sinus): 0.39 ± 0.11 pmol/mgp
Oxidized lipids: F2-isoprostanes per arachidonate (apoE−/− mice [3]; Sinus): 8.6 ± 4.8 μmol/mol arachidonate
Antioxidants: α-Tocopherol (apoE−/− mice [3]; Thoracic/Abdominal): 1.2 ± 0.2^a nmol/mgp
Lipids: C18:2 (apoE−/− mice [3]; Thoracic/Abdominal): 10 ± 5^a,b nmol/mgp
Lipids: C20:4 (apoE−/− mice [3]; Thoracic/Abdominal): 5.0 ± 1.4^a,b nmol/mgp
Oxidized lipids: 7KC (apoE−/− mice [3]; Thoracic/Abdominal): 0.10 ± 0.04 pmol/mgp
Oxidized lipids: 7KC/total cholesterol (apoE−/− mice [3]; Thoracic/Abdominal): 0.08 ± 0.02 mmol/mol
Oxidized lipids: CE-OOH (apoE−/− mice [3]; Thoracic/Abdominal): 20.3 ± 8.1 pmol/mgp
Oxidized lipids: CE-OOH/CE (apoE−/− mice [3]; Thoracic/Abdominal): 1.46 ± 0.72 mmol/mol
Lipids: C (apoE−/− mice [3]; Thoracic/Abdominal): 215 ± 55^a nmol/mgp
Oxidized lipids: F2-isoprostanes (apoE−/− mice [3]; Thoracic/Abdominal): 0.14 ± 0.04^a,b pmol/mgp
Oxidized lipids: F2-isoprostanes per arachidonate (apoE−/− mice [3]; Thoracic/Abdominal): 3.8 ± 1.4^a,b μmol/mol arachidonate
